# Measured values as given in patent US11129807B2, “Methods of treating schizophrenia” (Sunovion Pharmaceuticals Inc., priority 2017, dated 2021).
# How the values were obtained:
# [1] = tested on: PCP-Induced Hyperactivity Responses in Mice; experiment: PCP-induced hyperactivity (open field) in mice;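 further: plus means significant inhibition of PCP hyperactivity at P below 0.05 and minus means none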; type: in vivo; details: male C57Bl/6J mice, vs. vehicle + PCP
# Procedure: (§1) Anti-psychotic like activity of the compounds was evaluated in mice using the PCP hyperactivity and Pre-Pulse Inhibition (PPI) models of schizophrenia.
# (§2) Methods: Animals: Male C57Bl/6J mice from Jackson Laboratories (Bar Harbor, Me.) were used. Upon receipt, mice were assigned unique identification numbers (tail marked) and were group housed with 4 mice per cage in OptiMICE ventilated cages. All animals remained housed in groups of four during the remainder of the study. All mice were acclimated to the colony room for at least two weeks prior to testing. During the period of acclimation, mice were examined on a regular basis, handled, and weighed to assure adequate health and suitability. Animals were maintained on a 12/12 light/dark cycle. The room temperature was maintained between 20 and 23° C. with a relative humidity maintained between 30% and 70%. Chow and water were provided ad libitum for the duration of the study. In each test, animals were randomly assigned across treatment groups.
# The analysis was configured to divide the open field into a center and periphery zone. Distance traveled was measured from horizontal beam breaks as the mouse moved whereas rearing activity was measured from vertical beam breaks.
# Mice were injected with vehicle, test compound, or clozapine (1 mg/kg; i.p) and placed in the OF chambers for 30 min measurement of baseline activity. Mice were then injected with either water or PCP (5 mg/kg; i.p) and placed back in the OF chambers for a 60-minute session. At the end of each OF test session the OF chambers were thoroughly cleaned.
# [2] = tested on: Pre-pulse Inhibition (PPI) in Mice; experiment: Pre-pulse inhibition (PPI) of startle in mice;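 further: plus grades count prepulse intensities with significant PPI increase at P below 0.05 and minus means no change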; type: in vivo; details: 30 min prior to PPI test, male C57Bl/6J mice, vs. vehicle
# Procedure: as §1, §2
# Prepulse Inhibition of Startle: The acoustic startle is an unconditioned reflex response to an external auditory stimulus. Prepulse inhibition of startle (PPI) refers to the reduction in the startle response caused by the presentation of a low-intensity auditory stimulus prior to the startle stimulus. The PPI paradigm is used for the study of schizophrenia and antipsychotic action due to the similarities between the results from human and rodent studies. […] Various psychotomimetic drugs such as PCP can disrupt PPI. In mice, antipsychotic drugs such as clozapine can reverse the disruption of PPI induced by PCP.
# Mice were placed in the PPI chambers (Med Associates) for a 5 min session of white noise (70 dB) habituation. After the habituation period the test session was initiated. The session started with a habituation block of 6 presentations of the startle stimulus alone, followed by 10 PPI blocks, each of which consisted of 6 different types of trials. Trial types were: ‘null’ (no stimuli), ‘startle’ (120 dB), ‘startle plus prepulse’ (4, 8 and 12 dB over background noise, i.e., 74, 78 or 82 dB) and ‘prepulse’ (82 dB). Trial types were presented in a random order within each block. Each trial started with a 50 ms stimulus-free period during which baseline movements were recorded. This was followed by a subsequent 20 ms period during which the prepulse stimulus was presented and responses to the prepulse measured. After a further 100 ms period, the startle stimulus was presented for 40 ms and responses recorded for 100 ms from startle onset. Responses were sampled every ms. The inter-trial interval was variable with an average of 15 s (range from 10 to 20 s). In ‘startle’ trials the basic auditory startle response was measured. The basic startle response was calculated as the mean startle response of all ‘startle’ trials (i.e., excluding the first habituation block). In ‘startle plus prepulse’ trials the degree of inhibition of the normal startle was calculated and expressed as a percentage of the basic startle response.
# Mice were treated with vehicle, haloperidol (1 mg/kg; i.p) or test compound 30 min prior to PPI test. The PPI enclosures were cleaned following each test.
# [3] = tested on: patients with an acute exacerbation of schizophrenia (PANSS symptom factors); experiment: Pooled 6-week placebo-controlled lurasidone studies in acute schizophrenia (PANSS Analysis Study): effect sizes on Marder and transformed PANSS factors; type: in vivo, human; details: FIG. 3B, given as r=
# Procedure: Profile of active drug effects on schizophrenia symptom domains. In the left panel of FIG. 3B, shown are lurasidone vs placebo effect sizes (with 95% CI) for change from baseline at week 6 endpoint, based on the Marder PANSS factors. In the right panel of FIG. 3B, the same lurasidone vs placebo effect sizes at endpoint are shown based on the transformed PANSS factors. Drug effects were constructed using a pool of all lurasidone doses (40, 80, 120, or 160 mg/day, total N=993) and excluded active comparators (olanzapine, quetiapine-XR). To examine placebo effects on PANSS factors, placebo treated patients (N=484) were pooled across all studies. Transformed PANSS factors were calculated using the coefficients of the score matrix (see FIG. 4 and Table 4A).
# The analysis sample consisted of PANSS data derived from 5 similarly-designed, randomized, double-blind, placebo-controlled, 6-week treatment studies of lurasidone or active comparator for the treatment of patients with an acute exacerbation of schizophrenia. Patients (N=1,710) were included in this analysis if they had received at least one dose of study drug, and had at least one post-baseline PANSS assessment. The analysis pooled all lurasidone doses (40, 80, 120, or 160 mg/d, total N=993), and excluded active comparators (olanzapine, quetiapine-XR). To examine placebo effects on PANSS factors, placebo treated patients (N=484) were pooled across all studies. Herein also referred to as the “PANSS Analysis Study.”
# The Uncorrelated PANSS Score Matrix (UPSM) of FIG. 4 and Table 4A was derived using PROC FACTOR procedure of SAS 9.4 with maximum likelihood method (maximum likelihood factor analysis), rotated using the varimax algorithm and compensated for communality greater than 1 using Heywood criteria without a limit on the number of factors produced. A last observation carried forward (LOCF) data imputation method was applied for missing post-baseline PANSS assessments.
# The ratings of 30 items in the PANSS data of the PANSS Analysis Study were transformed to transformed PANSS factor scores using a score matrix identified by the maximum likelihood method factor analysis conducted on all change from baseline PANSS data from the 5 short-term clinical trials in the pooled analysis sample. The score matrix, also referred to here as the UPSM, consisted of coefficients multiplying the numerical ratings of each PANSS item differentially for each of the factor scores.
# The change-from-baseline PANSS data for all patients and all observations N was a matrix of dimensions (N observations×30 items). To increase precision, the score matrix coefficients were determined using all change-from-baseline observations at Weeks 1-6. The resultant score matrix (30 items×7 factors), or UPSM, was used to transform individual PANSS item change scores (without standardization) to reduce the dimensionality into 7-factor values for each PANSS assessment. FIG. 4 and Table 4A summarize the score matrix (UPSM) weights for individual PANSS items used to generate the transformed PANSS factors.
# The weighted score matrix transformation was performed on each of the PANSS item baseline-to-endpoint change scores. This transformation yielded 5 transformed PANSS factors that corresponded to the Marder PANSS factors, with two of the factors (negative symptoms and depression/anxiety) further subdivided into sub-factors (corresponding to the symptom sub-domains of: apathy/avolition and deficit of expression; and depression and anxiety, respectively).
# The Validation Study data transformed PANSS factors of Example 1 were used to compare treatment effects of an antipsychotic (lurasidone) on established schizophrenia symptom domains with those estimated using Marder PANSS factors.
# [4] = 0.3 mg/kg Compound + PCP (5 mg/kg; i.p)
# [5] = 1 mg/kg Compound + PCP (5 mg/kg; i.p)
# [6] = 3 mg/kg Compound + PCP (5 mg/kg; i.p)
# [7] = 10 mg/kg Compound + PCP (5 mg/kg; i.p)
# [8] = 30 mg/kg Compound + PCP (5 mg/kg; i.p)
SMILES,"Total Distance Traveled (cm) [1, 4]","Total Distance Traveled (cm) [1, 5]","Total Distance Traveled (cm) [1, 6]","Total Distance Traveled (cm) [1, 7]","Total Distance Traveled (cm) [1, 8]",Effect on Pre-pulse Inhibition (PPI) ([2]; 3 mg/kg),Effect on Pre-pulse Inhibition (PPI) ([2]; 10 mg/kg),Effect on Pre-pulse Inhibition (PPI) ([2]; 30 mg/kg),also measured
CNC[C@H]1OCCc2c(C)csc21 [Compound 172],−,+,+,−,−,−,−,−,Effect on Pre-pulse Inhibition (PPI) ([2]; 100 mg/kg): −
c1cc2c(s1)[C@@H]([C@H]1CCCN1)OCC2 [Compound 205],+,+,+,+,+,−,−,+++,
C[C@H](N)[C@@H]1OCCc2ccsc21 [Compound 213],+,+,+,+,+,−,+++,+++,
CCNC[C@H]1OCCc2ccsc21 [Compound 242],−,+,+,+,+,−,−,−,
CCNC[C@@H]1OCCc2sccc21 [Compound 310],+,−,−,+,+,−,−,+++,
CCNC[C@H]1OCCc2sccc21 [Compound 311],−,+,+,+,+,−,−,+++,
O=C1[C@@H]2[C@H]3CC[C@H](C3)[C@@H]2C(=O)N1C[C@@H]1CCCC[C@H]1CN1CCN(c2nsc3ccccc23)CC1 [lurasidone],,,,,,,,,"effect size, Marder negative symptom factor ([3]; change score): 0.35; effect size, transformed PANSS negative symptoms deficit of expression ([3]; change score): 0.04; effect size, transformed PANSS negative symptoms of apathy/avolition ([3]; change score): 0.22; effect size, Marder PANSS disorganized factor change score [3]: 0.48; effect size, Marder PANSS factor change score compared with transformed anxiety factor [3]: 0.38; effect size, Marder PANSS factor change score compared with transformed depression factor [3]: 0.38; effect size, Marder PANSS hostility factor change score [3]: 0.43; effect size, Marder PANSS positive factor change score [3]: 0.59; effect size, transformed PANSS anxiety factor change score [3]: 0.24; effect size, transformed PANSS depression factor change score [3]: 0.16; effect size, transformed PANSS disorganized factor change score [3]: 0.23; effect size, transformed PANSS hostility factor change score [3]: 0.31; effect size, transformed PANSS positive factor change score [3]: 0.45"
